Results published in patent US6737383B1, “Herbicidal oxadiazolidines” (priority 1999, dated 2004).

Assays:
corn = assay: Test B pre/postemergence corn; type: in vivo, Zea mays
Summary of the method: (§1)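 Response is a visual 0-to-10 score relative to untreated plants, where 0 means no effect and 10 means complete control, taken twelve to sixteen days after application. Treatments went onto soil at planting and onto foliage of 1- to 4-leaf plants, using a surfactant-containing non-phytotoxic solvent.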

soybean = assay: Test B pre/postemergence soybean; type: in vivo, Glycine max
Summary of the method: as §1

rice = assay: Test B flood test rice; type: in vivo, Oryza sativa
Summary of the method: (§2)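 Each value is a visual injury score relative to controls, with 10 meaning complete control and 0 no effect. Evaluation took place twelve to sixteen days after the 2-leaf-stage plants were treated and kept in the greenhouse.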

rape = assay: Test B pre/postemergence rape; type: in vivo, Brassica napus
Summary of the method: as §1

morningglory = assay: Test B pre/postemergence morningglory; type: in vivo, Ipomoea hederacea
Summary of the method: as §1

sugar beet = assay: Test B pre/postemergence sugar beet; type: in vivo, Beta vulgaris
Summary of the method: as §1

wild oat = assay: Test B pre/postemergence wild oat; type: in vivo, Avena fatua
Summary of the method: as §1

cocklebur = assay: Test B pre/postemergence cocklebur; type: in vivo, Xanthium strumarium
Summary of the method: as §1

purple nutsedge = assay: Test B pre/postemergence purple nutsedge; type: in vivo, Cyperus rotundus
Summary of the method: as §1

velvetleaf = assay: Test B pre/postemergence velvetleaf; type: in vivo, Abutilon theophrasti
Summary of the method: as §1

pigweed = assay: Test B pre/postemergence pigweed; type: in vivo, Amaranthus retroflexus
Summary of the method: as §1

giant foxtail = assay: Test B pre/postemergence giant foxtail; type: in vivo, Setaria faberii
Summary of the method: as §1

wheat = assay: Test B pre/postemergence wheat; type: in vivo, Triticum aestivum
Summary of the method: as §1

duck salad = assay: Test B flood test duck salad; type: in vivo, Heteranthera limosa
Summary of the method: as §2

smallflower flatsedge = assay: Test B flood test smallflower flatsedge; type: in vivo, Cyperus difformis
Summary of the method: as §2

crabgrass = assay: Test B pre/postemergence crabgrass; type: in vivo, Digitaria sanguinalis
Summary of the method: as §1

[1] = Postemergence, Rate 125 g/ha, scale of 0 to 10 where 0 is no effect and 10 is complete control
[2] = Preemergence, Rate 62 g/ha, scale 0 to 10 (0 no effect, 10 complete control)
[3] = Preemergence, Rate 125 g/ha, 0 is no effect, 10 is complete control
[4] = Preemergence, Rate 250 g/ha, scale 0 to 10, 0 is no effect, 10 is complete control
[5] = Preemergence, Rate 500 g/ha, scale 0 to 10 (0 no effect, 10 complete control)
[6] = Rate 62 g/ha, Postemergence, scale of 0 to 10 where 0 is no effect and 10 is complete control
[7] = Rate 250 g/ha, Postemergence, scale 0 to 10, 0 is no effect, 10 is complete control
[8] = Rate 500 g/ha, Postemergence, scale 0 to 10
[9] = Postemergence (flood test species), Rate 125 g/ha, scale of 0 to 10 where 0 is no effect and 10 is complete control
[10] = Rate 62 g/ha, Postemergence section, flood test species, scale of 0 to 10 where 0 is no effect and 10 is complete control
[11] = Rate 250 g/ha, Postemergence (flood test), scale 0 to 10, 0 is no effect, 10 is complete control
[12] = Rate 500 g/ha, listed under Postemergence (flood test species), scale 0 to 10

CN(C(=O)n1oc(=O)n(Cc2ccccc2)c1=O)c1ccccc1 [Compound 153]
0: Corn plant response rating (corn; [1]) | Corn plant response rating (corn; [2]) | Corn plant response rating (0 to 10 scale) (corn; [3]) | Corn plant response rating (corn; [4]) | Corn plant response rating (corn; [5]) | Corn plant response rating (corn; [6]) | Plant response rating, Corn (corn; [7]) | Corn plant response rating (corn; [8]) | Soybean plant response rating (soybean; [1]) | Soybean plant response rating (soybean; [2]) | Soybean plant response rating (0 to 10 scale) (soybean; [3]) | Soybean plant response rating (soybean; [4]) | Soybean plant response rating (soybean; [5]) | Soybean plant response rating (soybean; [6]) | Plant response rating, Soybean (soybean; [7]) | Soybean plant response rating (soybean; [8]) | Rice plant response rating (rice; [9]) | Rice plant response rating (rice; [10]) | Plant response rating, Rice (rice; [11]) | Rice plant response rating (rice; [12]) | Rape plant response rating (rape; [1]) | Rape plant response rating (rape; [2]) | Rape plant response rating (0 to 10 scale) (rape; [3]) | Rape plant response rating (rape; [4]) | Rape plant response rating (rape; [5]) | Rape plant response rating (rape; [6]) | Plant response rating, Rape (rape; [7]) | Rape plant response rating (rape; [8]) | Morningglory plant response rating (morningglory; [1]) | Morningglory plant response rating (morningglory; [2]) | Morningglory plant response rating (0 to 10 scale) (morningglory; [3]) | Morningglory plant response rating (morningglory; [4]) | Morningglory plant response rating (morningglory; [5]) | Morningglory plant response rating (morningglory; [6]) | Plant response rating, Morningglory (morningglory; [7]) | Morningglory plant response rating (morningglory; [8]) | Sugarbeets plant response rating (sugar beet; [1]) | Sugarbeets plant response rating (sugar beet; [2]) | Sugarbeets plant response rating (0 to 10 scale) (sugar beet; [3]) | Sugarbeets plant response rating (sugar beet; [4]) | Sugarbeets plant response rating (sugar beet; [5]) | Sugarbeets plant response rating (sugar beet; [6]) | Plant response rating, Sugarbeets (sugar beet; [7]) | Sugarbeets plant response rating (sugar beet; [8]) | Wild oats plant response rating (wild oat; [2]) | Wild oats plant response rating (0 to 10 scale) (wild oat; [3]) | Wild oats plant response rating (wild oat; [4]) | Wild oats plant response rating (wild oat; [5]) | Wild oats plant response rating (wild oat; [6]) | Plant response rating, Wild oats (wild oat; [7]) | Wild oats plant response rating (wild oat; [8]) | Cocklebur plant response rating (cocklebur; [1]) | Cocklebur plant response rating (cocklebur; [2]) | Cocklebur plant response rating (0 to 10 scale) (cocklebur; [3]) | Cocklebur plant response rating (cocklebur; [4]) | Cocklebur plant response rating (cocklebur; [5]) | Cocklebur plant response rating (cocklebur; [6]) | Plant response rating, Cocklebur (cocklebur; [7]) | Cocklebur plant response rating (cocklebur; [8]) | Nutsedge plant response rating (purple nutsedge; [1]) | Nutsedge plant response rating (purple nutsedge; [2]) | Nutsedge plant response rating (0 to 10 scale) (purple nutsedge; [3]) | Nutsedge plant response rating (purple nutsedge; [4]) | Nutsedge plant response rating (purple nutsedge; [5]) | Nutsedge plant response rating (purple nutsedge; [6]) | Plant response rating, Nutsedge (purple nutsedge; [7]) | Nutsedge plant response rating (purple nutsedge; [8]) | Velvetleaf plant response rating (velvetleaf; [2]) | Velvetleaf plant response rating (0 to 10 scale) (velvetleaf; [3]) | Velvetleaf plant response rating (velvetleaf; [4]) | Velvetleaf plant response rating (velvetleaf; [5]) | Velvetleaf plant response rating (velvetleaf; [6]) | Plant response rating, Velvetleaf (velvetleaf; [7]) | Velvetleaf plant response rating (velvetleaf; [8]) | Redroot pigweed plant response rating (pigweed; [1]) | Redroot pigweed plant response rating (pigweed; [2]) | Redroot pigweed plant response rating (0 to 10 scale) (pigweed; [3]) | Redroot pigweed plant response rating (pigweed; [4]) | Redroot pigweed plant response rating (pigweed; [5]) | Redroot pigweed plant response rating (pigweed; [6]) | Plant response rating, Redroot pigweed (pigweed; [7]) | Redroot pigweed plant response rating (pigweed; [8]) | Giant foxtail plant response rating (giant foxtail; [1]) | Giant foxtail plant response rating (giant foxtail; [2]) | Giant foxtail plant response rating (0 to 10 scale) (giant foxtail; [3]) | Giant foxtail plant response rating (giant foxtail; [4]) | Giant foxtail plant response rating (giant foxtail; [5]) | Giant foxtail plant response rating (giant foxtail; [6]) | Plant response rating, Giant foxtail (giant foxtail; [7]) | Giant foxtail plant response rating (giant foxtail; [8]) | Wheat plant response rating (wheat; [2]) | Wheat plant response rating (0 to 10 scale) (wheat; [3]) | Wheat plant response rating (wheat; [4]) | Wheat plant response rating (wheat; [5]) | Wheat plant response rating (wheat; [6]) | Plant response rating, Wheat (wheat; [7]) | Wheat plant response rating (wheat; [8]) | Ducksalad plant response rating (duck salad; [9]) | Ducksalad plant response rating (duck salad; [10]) | Plant response rating, Ducksalad (duck salad; [11]) | Ducksalad plant response rating (duck salad; [12]) | S. Flatsedge plant response rating (smallflower flatsedge; [9]) | S. Flatsedge plant response rating (smallflower flatsedge; [10]) | Plant response rating, S. Flatsedge (smallflower flatsedge; [11]) | S. Flatsedge plant response rating (smallflower flatsedge; [12]) | Crabgrass plant response rating (crabgrass; [1]) | Crabgrass plant response rating (crabgrass; [2]) | Crabgrass plant response rating (0 to 10 scale) (crabgrass; [3]) | Crabgrass plant response rating (crabgrass; [4]) | Crabgrass plant response rating (crabgrass; [5]) | Crabgrass plant response rating (crabgrass; [6]) | Plant response rating, Crabgrass (crabgrass; [7]) | Crabgrass plant response rating (crabgrass; [8])
